According to ChEMBL document CHEMBL3739316, “Novel orally active inhibitors of β-1,3-glucan synthesis derived from enfumafungin” (Bioorg Med Chem Lett, 2015):
Converted amounts (≈) assume the structure as drawn.

Columns and labels:
Beta-1,3-glucan synthase = biological target: T1, Beta-1,3-glucan synthase (Candida albicans, UniProt O13383); assay: Displacement of UDP-[3H]glucose from beta-1,3-glucan synthase in Candida albicans MY1055 microsomal membranes incubated for 2 hrs
T1 sequence (O13383 whole entry): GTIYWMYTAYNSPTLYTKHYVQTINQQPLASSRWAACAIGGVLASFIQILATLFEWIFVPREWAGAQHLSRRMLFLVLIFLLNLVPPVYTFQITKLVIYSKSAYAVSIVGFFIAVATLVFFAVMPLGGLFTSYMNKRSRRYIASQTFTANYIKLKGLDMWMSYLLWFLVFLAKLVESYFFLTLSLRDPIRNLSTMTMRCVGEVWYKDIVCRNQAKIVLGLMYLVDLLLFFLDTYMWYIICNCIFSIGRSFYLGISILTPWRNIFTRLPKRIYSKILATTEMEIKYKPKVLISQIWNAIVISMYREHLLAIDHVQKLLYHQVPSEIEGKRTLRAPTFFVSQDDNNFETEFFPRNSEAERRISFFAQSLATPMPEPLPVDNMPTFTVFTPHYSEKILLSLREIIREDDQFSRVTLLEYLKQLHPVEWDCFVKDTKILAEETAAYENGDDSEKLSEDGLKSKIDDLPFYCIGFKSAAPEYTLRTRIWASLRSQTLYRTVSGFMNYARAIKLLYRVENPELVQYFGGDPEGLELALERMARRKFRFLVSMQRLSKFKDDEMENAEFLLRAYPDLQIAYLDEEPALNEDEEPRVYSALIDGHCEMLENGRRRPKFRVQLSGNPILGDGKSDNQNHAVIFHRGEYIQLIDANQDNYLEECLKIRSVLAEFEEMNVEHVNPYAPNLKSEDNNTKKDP

Candida albicans [1] = assay: Antifungal activity against Candida albicans MY1055 after 24 hrs by liquid microdilution assay; format: functional; details: MY1055, 24 h
Aspergillus fumigatus = assay: Antifungal activity against Aspergillus fumigatus MF5668 after 24 hrs by liquid microdilution assay; format: functional; details: MF5668, 24 h, read-out: MEC
Candida albicans [2] = assay: Antifungal activity against Candida albicans MY1055 after 24 hrs by liquid microdilution assay in presence of human serum; format: functional; details: MY1055, 24 h
Mus musculus [3] = assay: Dose normalized AUC in orally dosed mouse; format: ADME, organism-based; details: in vivo, po
[4] = Oral bioavailability in mouse; format: ADME, organism-based; details: in vivo
Candida albicans [5] = assay: Antifungal activity against Candida albicans MY1055 in DBA/2 mouse candidiasis model assessed as change in CFU per gram of kidney at 25 mg/kg, po bid after 4 days by Target Organ Kidney Assay relative to sham treated control; format: functional
Candida albicans [6] = assay: Antifungal activity against Candida albicans MY1055 in DBA/2 mouse candidiasis model assessed as change in CFU per gram of kidney at 12.5 mg/kg, po bid after 4 days by Target Organ Kidney Assay relative to sham treated control; format: functional
Candida albicans [7] = assay: Antifungal activity against Candida albicans MY1055 in DBA/2 mouse candidiasis model assessed as change in CFU per gram of kidney at 6.25 mg/kg, po bid after 4 days by Target Organ Kidney Assay relative to sham treated control; format: functional
Candida albicans [8] = assay: Antifungal activity against Candida albicans MY1055 in DBA/2 mouse candidiasis model assessed as change in CFU per gram of kidney at 12.5 mg/kg, ip bid after 7 days by Target Organ Kidney Assay relative to sham treated control; format: functional
Candida albicans [9] = assay: Antifungal activity against Candida albicans MY1055 in DBA/2 mouse candidiasis model assessed as change in CFU per gram of kidney at 25 mg/kg, po bid after 7 days by Target Organ Kidney Assay relative to sham treated control; format: functional
Candida albicans [10] = assay: Antifungal activity against Candida albicans MY1055 in DBA/2 mouse candidiasis model assessed as change in CFU per gram of kidney at 12.5 mg/kg, po bid after 7 days by Target Organ Kidney Assay relative to sham treated control; format: functional
Candida albicans [11] = assay: Antifungal activity against Candida albicans MY1055 in DBA/2 mouse candidiasis model assessed as change in CFU per gram of kidney at 6.25 mg/kg, po bid after 7 days by Target Organ Kidney Assay relative to sham treated control; format: functional
Candida albicans [12] = assay: Antifungal activity against Candida albicans MY1055 in DBA/2N mouse candidiasis model assessed as mouse survival at 12.5 mg/kg, ip bid after 7 days by Target Organ Kidney Assay relative to sham treated control; format: functional; details: 168 h
Candida albicans [13] = assay: Antifungal activity against Candida albicans MY1055 in DBA/2N mouse candidiasis model assessed as mouse survival at 25 mg/kg, po bid after 7 days by Target Organ Kidney Assay relative to sham treated control; format: functional; details: 168 h
Candida albicans [14] = assay: Antifungal activity against Candida albicans MY1055 in DBA/2N mouse candidiasis model assessed as mouse survival at 12.5 mg/kg, po bid after 7 days by Target Organ Kidney Assay relative to sham treated control; format: functional; details: 168 h
Candida albicans [15] = assay: Antifungal activity against Candida albicans MY1055 in DBA/2N mouse candidiasis model assessed as mouse survival at 6.25 mg/kg, po bid after 4 days by Target Organ Kidney Assay relative to sham treated control; format: functional; details: 96 h
Candida albicans [16] = assay: Antifungal activity against Candida albicans MY1055 in DBA/2N mouse candidiasis model assessed as reduction of fungal burden after 7 days; format: functional; details: MY1055, 168 h
[17] = AUC (0 to 24 hrs) in DBA/2J mouse at 10 mg/kg, po; format: ADME, organism-based; design: dose 10 mg/kg, time < 24 hr, route oral; details: in vivo
Mus musculus [18] = assay: AUC (0 to 24 hrs) in DBA/2J mouse assessed as metabolite 13c at 10 mg/kg, po; format: ADME, organism-based; design: dose 10 mg/kg, time < 24 hr, route oral; details: in vivo
Mus musculus [19] = assay: AUC (0 to 24 hrs) in DBA/2J mouse assessed as total metabolites at 10 mg/kg, po; format: ADME, organism-based; details: in vivo
Mus musculus [20] = assay: Drug level in DBA/2J mouse treated with 13f at 10 mg/kg, po; format: ADME, organism-based; details: in vivo
Rattus norvegicus = assay: Dose normalized AUC in orally dosed rat; format: ADME, organism-based; details: in vivo, po
[21] = Oral bioavailability in rat; format: ADME, organism-based; details: in vivo

SMILES | IC50 (Beta-1,3-glucan synthase) [nM] | MIC (Candida albicans [1]) [µg/mL] | minimal effective concentration (Aspergillus fumigatus) [µg/mL] | MIC (Candida albicans [2]) [µg/mL] | AUC/dose (Mus musculus [3]) [µM·kg·h/mg] | bioavailability [4] [%] | Activity (Candida albicans [5]) [deltalog10CFU] | Activity (Candida albicans [6]) [deltalog10CFU] | Activity (Candida albicans [7]) [deltalog10CFU] | Activity (Candida albicans [8]) [deltalog10CFU] | Activity (Candida albicans [9]) [deltalog10CFU] | Activity (Candida albicans [10]) [deltalog10CFU] | Activity (Candida albicans [11]) [deltalog10CFU] | survival at 12.5 mg/kg (Candida albicans [12]) [%] | survival at 25 mg/kg (Candida albicans [13]) [%] | survival at 12.5 mg/kg (Candida albicans [14]) [%] | survival at 6.25 mg/kg (Candida albicans [15]) [%] | ED99 (Candida albicans [16]) [mg/kg] | AUC(0-t) at 24 h [17] [µM·h] | AUC (Mus musculus [18]) [µM·h] | further results
CCN[C@@](C)(CO[C@H]1[C@H](n2nnc(N)n2)C[C@@]23COCC1(C)[C@@H]2CC[C@H]1C3=CC[C@@]2(C)[C@H](C(=O)O)[C@@](C)([C@H](C)C(C)C)CC[C@]12C)C(C)C | 7.32 | 0.06 (≈ 0.0878 µM) | < 0.03 | 8 | 0.44 | 11 | -2.8 | -2.6 | -0.7 | -3.26 | -2.8 | -2.54 | 0.72 | 100 | 100 | 60 | 20 | 13 | 4.22 | 0.29 | Drug uptake (Mus musculus [19]): 6.4%
CN[C@@](C)(CO[C@H]1[C@H](n2nnc(N)n2)C[C@@]23COCC1(C)[C@@H]2CC[C@H]1C3=CC[C@@]2(C)[C@H](C(=O)O)[C@@](C)([C@H](C)C(C)C)CC[C@]12C)C(C)C | 2.99 | < 0.03 | < 0.03 | 4 | 0.12 | 9 | -2.5 | -1.9 | -1.5 | -3.89 | -2.54 | 0.89 | -0.61 | 100 | 100 | 20 | 20 | 19 | 1.06 | 0.005 | Drug uptake (Mus musculus [19]): 0.5%; Drug metabolism (Mus musculus [20]): metabolite_detected
CC(=O)O[C@@H]1C[C@@]23COCC(C)([C@H]1O[C@@H]1O[C@H](CO)[C@@H](O)[C@H](O)[C@H]1O)[C@@H]2CC[C@H]1C3=CC[C@@]2(C)[C@H](C(=O)O)[C@@](C)([C@H](C)C(C)C)CC[C@]12C | 86.6 | 0.25 (≈ 0.361 µM) | < 0.03 | 8 |  |  |  |  |  |  |  |  |  |  |  |  |  |  |  |  | AUC/dose (Rattus norvegicus): 0.01 µM·kg·h/mg; bioavailability [21]: 1%
CCCN[C@@](C)(CO[C@H]1[C@H](n2nnc(N)n2)C[C@@]23COCC1(C)[C@@H]2CC[C@H]1C3=CC[C@@]2(C)[C@H](C(=O)O)[C@@](C)([C@H](C)C(C)C)CC[C@]12C)C(C)C | 11.5 | 0.06 (≈ 0.0861 µM) | < 0.03 | 16 | 0.35 | 25 | -3 | -2.4 | -1.1 | -2.98 | -2.9 | -1.53 | -2.04 | 100 | 100 | 100 | 40 | 10 | 3.13 | 0.36 | Drug uptake (Mus musculus [19]): 10.3%
CC(C)[C@@H](C)[C@@]1(C)CC[C@]2(C)[C@H]3CC[C@H]4C5(C)COC[C@@]4(C[C@@H](n4nnc(N)n4)[C@@H]5OC[C@](C)(N)C(C)C)C3=CC[C@@]2(C)[C@@H]1C(=O)O | 3.05 | < 0.03 | < 0.03 | 2 | 0.14 | 14 | -2.2 | -0.3 | -0.1 |  |  |  |  |  |  |  |  |  |  |  | Drug metabolism (Mus musculus [20]): metabolite_detected
